Literature values as cited in US10945947B2, “Formulations for intravenous administration” (GLAXOSMITHKLINE INTELLECTUAL PROPERTY (NO.2) LIMITED, priority 2015, dated 2021).
Where a name gives a salt, the structure may show the parent alone.

Conditions: at a higher pH, after oral administration

Cc1c(F)cccc1NC(=O)Nc1ccc(Cl)c(S(=O)(=O)[C@H]2CCCNC2)c1O [hydrobromide salt of danirixin]
solubility and dissolution profiles compared to the free base: improved solubility and dissolution profiles
